Tests used:
786-O [1] = test: Cytotoxicity in vitro (MTT) in presence/absence of elastase; assay type: cell-based, human; details: 72 h
Description: (§1) Cultivation of cells was performed according to standard procedures with the media recommended by the provider. The cells, in a total volume of 100 μL, were seeded in a 96-well plate with a white bottom (#3610). After a 24 h incubation period at 37° C. and […], the medium was exchanged by adding 90 μL fresh medium. The treatment started by adding the test compound in 10 μL of culture medium to the cells in triplicates. Concentrations ranging from 10^−5 M to 10^−13 M were chosen. Two identically treated sets of samples were prepared. One set was treated with the test compound alone, whereas to the second set the compound and 10 nM elastase was added followed by a 72 h incubation period at 37° C. and […]. The proliferation was detected using the MTT assay (ATCC). At the end of the incubation period the MTT reagent was added to all samples for 4 h. Lysis of the cells followed by addition of the detergent was done overnight. The formed dye was detected at 570 nm. The proliferation of untreated but otherwise identically handled cells was define as the 100% value.

HT29 [2] = test: as above; assay type: cell-based, human; details: 72 h
Description: as §1

NCI H292 [3] = test: as above; assay type: cell-based, human; details: 72 h
Description: as §1

SUM149 [4] = test: as above; assay type: cell-based; details: 72 h
Description: as §1

786-O [5] = test: Cytotoxicity assay (Version 2, automated, AC50) with/without neutrophil elastase; assay type: cell-based, human; details: Version 2, activity concentration at −50%
Description: as §1
(§2) The cytotoxicity assay (Version 2) was performed as described above. Some changes were applied as the assays were performed in an automated fashion and the IC50 values determination was changed. Here the change in metabolic activity of the cells, in percent, was calculated by normalization of the measured values to the absorbance values of medium containing wells without cells (═−100%) and the absorbance of the DMSO-treated cells (═0%). AC50 values (activity concentration at −50%) were determined by means of a 4 parameter Hill-fit using GeneData Screener software.

HT29 [6] = test: as above; assay type: cell-based, human; details: Version 2, activity concentration at −50%
Description: as §1, §2

NCI H292 [7] = test: as above; assay type: cell-based, human; details: Version 2, activity concentration at −50%
Description: as §1, §2

SUM149 [8] = test: as above; assay type: cell-based; details: Version 2, activity concentration at −50%
Description: as §1, §2

[9] = with (+) 10 nM neutrophil elastase
[10] = without (−) neutrophil elastase
[11] = HT29, with (+) 10 nM neutrophil elastase
[12] = HT29, without (−) neutrophil elastase
[13] = NCI H292, with (+) 10 nM neutrophil elastase
[14] = NCI H292, without (−) neutrophil elastase
[15] = SUM149, with (+) 10 nM neutrophil elastase
[16] = SUM149, without (−) neutrophil elastase
[17] = HT29, with (+) neutrophil elastase
[18] = NCI H292, with (+) neutrophil elastase
[19] = SUM149, with (+) neutrophil elastase

SMILES	IC50 (786-O [1]; [9])	IC50 (786-O [1]; [10])	IC50 (HT29 [2]; [11])	IC50 (HT29 [2]; [12])	IC50 (NCI H292 [3]; [13])	IC50 (NCI H292 [3]; [14])	IC50 (SUM149 [4]; [15])	IC50 (SUM149 [4]; [16])	AC50 (786-O [5]; with (+) neutrophil elastase)	AC50 (786-O [5]; [10])	AC50 (HT29 [6]; [17])	AC50 (HT29 [6]; [12])	AC50 (NCI H292 [7]; [18])	AC50 (NCI H292 [7]; [14])	AC50 (SUM149 [8]; [19])	AC50 (SUM149 [8]; [16])
CCCNC(=O)Nc1cccc(S(=O)(=O)Nc2cccc([C@@H](CC(=O)O)NC(=O)Nc3ccc(NC(=O)N(C)CCN(C)CCN(C)CC(=O)N[C@@H](CC(N)=O)C(=O)N4CCC[C@H]4C(=O)N[C@H](C(=O)N=[S@@](C)(=O)Cc4cc5cc(c4)OCCCCOc4cc(F)ccc4-c4nc(ncc4F)N5)C(C)C)cc3)c2)c1 [Compound 5, N-{2-[{2-[({4-[({(1R)-2-Carboxy-1-[3-({3-[(propylcarbamoyl)amino]benzene-1-sulfonyl}amino)phenyl]ethyl}carbamoyl)amino]phenyl}carbamoyl)(methyl)amino]ethyl} (methyl)amino]ethyl}-N-methylglycyl-L-asparaginyl-L-prolyl-N—[(S)-{[16,20-difluoro-2,3,4,5-tetrahydro-12H-13,17-(azeno)-11,7-(metheno)-1,6,12,14-benzodioxadiazacyclononadecin-9-yl]methyl}(methyl)oxo-lambda^6-sulfanylidene]-L-valinamide]	≤ 1 nM	> 100 nM	≤ 1 nM	> 100 nM	1.1 to 10 nM	> 100 nM	1.1 to 10 nM	> 100 nM	11 to 100 nM	> 1000 nM	11 to 100 nM	> 1000 nM	11 to 100 nM	100 to 1000 nM	11 to 100 nM	> 1000 nM
CCCNC(=O)Nc1cccc(S(=O)(=O)Nc2cccc([C@H](CC(=O)O)NC(=O)Nc3ccc(NC(=O)NCCOCCOCCOCCC(=O)N[C@@H](CC(=O)O)C(=O)N4CCC[C@H]4C(=O)N[C@H](C(=O)N=[S@@](C)(=O)Cc4cc5cc(c4)OCCCCOc4cc(F)ccc4-c4nc(ncc4F)N5)C(C)C)cc3)c2)c1 [Compound 14]	≤ 1 nM	> 100 nM	≤ 1 nM	> 100 nM	1.1 to 10 nM	> 100 nM	≤ 1 nM	> 100 nM	11 to 100 nM	> 1000 nM	11 to 100 nM	> 1000 nM	11 to 100 nM	100 to 1000 nM	11 to 100 nM	100 to 1000 nM
CCCNC(=O)Nc1cccc(S(=O)(=O)Nc2cccc([C@@H](CC(=O)O)NC(=O)Nc3ccc(NC(=O)NCCOCCOCCOCCC(=O)NCCCC[C@H](NC(=O)CCOCCOCCOCCNC(=O)Nc4ccc(NC(=O)N[C@H](CC(=O)O)c5cccc(NS(=O)(=O)c6cccc(NC(=O)NCCC)c6)c5)cc4)C(=O)NCCOCCOCCOCCC(=O)N[C@@H](CC(=O)O)C(=O)N4CCC[C@H]4C(=O)N[C@H](C(=O)N=[S@@](C)(=O)Cc4cc5cc(c4)OCCCCOc4cc(F)ccc4-c4nc(ncc4F)N5)C(C)C)cc3)c2)c1 [Compound 18]	1.1 to 10 nM	> 100 nM	≤ 1 nM	11 to 100 nM	1.1 to 10 nM	> 100 nM	≤ 1 nM	11 to 100 nM	11 to 100 nM	> 1000 nM	11 to 100 nM	> 1000 nM	11 to 100 nM	100 to 1000 nM	≤ 10 nM	100 to 1000 nM
CCCNC(=O)Nc1cccc(S(=O)(=O)Nc2cccc([C@H](CC(=O)O)NC(=O)Nc3ccc(NC(=O)NCCOCCOCCOCCC(=O)NCCCC[C@H](NC(=O)CCOCCOCCOCCNC(=O)Nc4ccc(NC(=O)N[C@@H](CC(=O)O)c5cccc(NS(=O)(=O)c6cccc(NC(=O)NCCC)c6)c5)cc4)C(=O)NCCOCCOCCOCCC(=O)N[C@@H](CC(=O)O)C(=O)N4CCC[C@H]4C(=O)N[C@H](C(=O)N=[S@@](C)(=O)Cc4cc5cc(c4)OCCCCOc4cc(F)ccc4-c4nc(ncc4F)N5)C(C)C)cc3)c2)c1 [Compound 19]	1.1 to 10 nM	> 100 nM	≤ 1 nM	11 to 100 nM	1.1 to 10 nM	11 to 100 nM	≤ 1 nM	1.1 to 10 nM	100 to 1000 nM	100 to 1000 nM	100 to 1000 nM	100 to 1000 nM	11 to 100 nM	100 to 1000 nM	100 to 1000 nM	100 to 1000 nM

— patent US20240408222A1, “COMPOUNDS, PHARMACEUTICAL COMPOSITIONS, AND METHODS FOR THE TREATMENT, PREVENTION, OR MANAGEMENT OF HYPERPRO[…]” (VINCERX PHARMA GMBH, priority 2021, published 2024)
